The target of data set [1] is KRAS G12C (GMPPNP-loaded) and cRAF (Ras-binding domain) interaction (Homo sapiens (Human), UniProt P01116, C118S/C51S/C80L/G12C). Kind of data set: Inhibition of KRAS G12C and cRAF binding (AlphaScreen). The conditions noted are these: KRAS G12C loaded with GMPPNP, cRaf RBD, 2 hours preincubation; read-out: Raf-1 RBD K-Ras IC50. The method, boiled down:
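AlphaScreen readout (680 nm excitation, 570 nm emission) of RBD binding after a 60-90 min bead step at room temperature. This step follows 2 h compound exposure of GMPPNP-preloaded KRAS G12C in Hepes pH 7.4 buffer with MgCl2 and 10 μM GMPPNP.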
On the technique in general: In Alpha technology, singlet oxygen from a donor bead excites a nearby acceptor bead.

The target in data set [2] is KRAS G12C (GMPPNP-loaded) and PI3Ka (Ras-binding domain) interaction (Homo sapiens (Human), UniProt P01116, C118S/C51S/C80L/G12C). Kind of data set: Inhibition of KRAS G12C and PI3Ka binding (AlphaScreen). The conditions noted are these: KRAS G12C loaded with GMPPNP, PI3Ka RBD, 2 hours preincubation; read-out: PI3K RBD K-Ras IC50. In a few lines: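 Biotin-AviTag Cys-light KRAS G12C (aa 1-169, C51S/C80L/C118S), GMPPNP-loaded, 1.5 nM, preincubated 2 h with compound, then His-tagged PI3Ka RBD (aa 157-300, 100 nM) plus AlphaScreen beads added for 60-90 min, RT. Buffer Hepes pH 7.4, 10 μM GMPPNP, 2% DMSO; 10-point 1:3 from 50 μM; 4-parameter IC50.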

A short description of data set [3]: Determination of logD (1-octanol / phosphate buffer pH 7.4). The class given is physicochemical. The conditions noted are these: 1-octanol/phosphate buffer, pH 7.4, pH 7.4, 1-octanol/phosphate buffer; read-out: Log D, pH 7.4. The method, boiled down: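 Each phase analysed by LCMS after 1 h shaking at 800 rpm and centrifugation, room temperature. Phases were mutually saturated 1-octanol and 100 mM phosphate buffer at pH 7.4. LogD derived from the phase concentrations.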

Data set [4] in a line: Determination of kinetic solubility (pH 7.4). The class given is physicochemical. The conditions noted are these: for solubility kinetic at 2 h: phosphate buffer, pH 7.4, aqueous buffer, kinetic from dmso stock, 50 mM phosphate buffer pH 7.4, read-out: Ksol, pH 7.4. The method, boiled down:
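Solubility taken from filtrate peak areas on a calibration curve (HPLC-UV, LC-MS/MS). Before filtration and centrifugation, compound was shaken for 2 h at room temperature in pH 7.4 50 mM phosphate buffer.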

Molecules are shown by their SMILES. In brackets after ≈: the same amount, converted by molar mass.

KRAS G12C (GMPPNP-loaded) and cRAF (Ras-binding domain) interaction, sequence (P01116 other isoform, or with tags, fused parts or gaps G12C/C51S/C80L/C118S): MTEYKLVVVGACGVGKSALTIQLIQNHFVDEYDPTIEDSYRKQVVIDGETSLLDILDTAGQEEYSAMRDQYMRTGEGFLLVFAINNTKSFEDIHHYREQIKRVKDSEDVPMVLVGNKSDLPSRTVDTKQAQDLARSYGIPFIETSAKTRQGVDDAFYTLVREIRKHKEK
KRAS G12C (GMPPNP-loaded) and PI3Ka (Ras-binding domain) interaction, sequence (P01116 other isoform, or with tags, fused parts or gaps G12C/C51S/C80L/C118S): as above

For `CO[C@H]1CCN(C/C=C/C(=O)N2CCN(c3nc(OC[C@@]45CCCN4C[C@H](F)C5)nc4c(F)c(-c5cccc6ccc(F)c(F)c56)ncc34)C[C@@H]2CC#N)C1` [Compound 217], the concentration for half-maximal inhibition (IC50) in data set [1] and in data set [2] was < 10 nM throughout. For the same molecule, the logD in data set [3] worked out at 2.01. For the same molecule, in data set [4], the solubility kinetic at 2 h came to 99.9 µg/mL (≈ 132 µM).
Take `N#CC[C@H]1CN(c2nc(OC[C@@]34CCCN3C[C@H](F)C4)nc3c2CCN(c2cccc4cccc(Cl)c24)C3)CCN1C(=O)/C=C/c1nc(C(F)F)no1` [Compound 18]: the IC50 in data set [1] and in data set [2] was < 10 nM each time. In addition, the logD in data set [3] stood at 4.78. Further, the solubility kinetic at 2 h in data set [4] is 0.01 µg/mL (≈ 0.0134 µM).
As to `N#CC[C@H]1CN(c2nc(OC[C@@]34CCCN3C[C@H](F)C4)nc3c(F)c(-c4cccc5ccc(F)c(Cl)c45)ncc23)CCN1C(=O)/C=C/CN1CC2CCC(C1)O2` [Example 78, 2-((2S)-1-((E)-4-(8-oxa-3-azabicyclo[3.2.1]octan-3-yl)but-2-enoyl)-4-(7-(8-chloro-7-fluoronaphthalen-1-yl)-8-fluoro-2-(((2R,7aS)-2-fluorotetrahydro-1H-pyrrolizin-7a(5H)-yl)methoxy)pyrido[4,3-d]pyrimidin-4-yl)piperazin-2-yl)acetonitrile], the IC50 in data set [1] and in data set [2] was < 10 nM each time. In addition, the logD in data set [3] was 3.64. Moreover, the solubility kinetic at 2 h in data set [4] worked out at 85 µg/mL (≈ 108 µM).
For the molecule `Cc1nccc(/C=C/C(=O)N2CCN(c3nc(OC[C@@]45CCCN4C[C@H](F)C5)nc4c3CCN(c3cccc5cccc(Cl)c35)C4)C[C@@H]2CC#N)n1` [Compound 123], the IC50 in data set [1] and in data set [2] was < 10 nM in each case. Besides, in data set [3], the logD was found to be 4.46. For the same molecule, in data set [4], the solubility kinetic at 2 h is 0.01 µg/mL (≈ 0.0138 µM).
As for `CC(C)c1nccc(/C=C/C(=O)N2CCN(c3nc(OC[C@@]45CCCN4C[C@H](F)C5)nc4c(F)c(-c5cccc6cccc(Cl)c56)ncc34)C[C@@H]2CC#N)n1` [Compound 151], the half-maximal inhibitory concentration (IC50) in data set [1] and in data set [2] was < 10 nM each time. The logD in data set [3] is 3.71. Further, in data set [4], the solubility kinetic at 2 h was 0.41 µg/mL (≈ 0.536 µM).
`Cc1noc(/C=C/C(=O)N2CCN(c3nc(OCC45CCCN4CCC5)nc4c3CCN(c3cccc5cccc(Cl)c35)C4)C[C@@H]2CC#N)n1` [Example 1, (S,E)-2-(4-(7-(8-chloronaphthalen-1-yl)-2-((hexahydro-1H-pyrrolizin-7a-yl)methoxy)-5,6,7,8-tetrahydropyrido[3,4-d]pyrimidin-4-yl)-1-(3-(3-methyl-1,2,4-oxadiazol-5-yl)acryloyl)piperazin-2-yl)acetonitrile]: the IC50 (commonly the midpoint of a concentration-inhibition curve) in data set [1] is 10 to 100 nM; in data set [2], < 10 nM. Further, the logD in data set [3] was 2.9. Also, the “Ksol, pH 7.4 (ug/mL)” value in data set [4] (50 mM phosphate buffer pH 7.4) was found to be 111.20 ug/mL.
Turning to `Cc1nccc(/C=C/C(=O)N2CCN(c3nc(OC[C@@]45CCCN4C[C@H](F)C5)nc4c(F)c(-c5cccc6cccc(Cl)c56)ncc34)C[C@@H]2CC#N)n1` [Compound 140], the half-maximal inhibitory concentration (IC50) in data set [1] and in data set [2] was < 10 nM throughout. Besides, in data set [3], the logD was found to be 3.45. Also, in data set [4], the solubility kinetic at 2 h turned out to be 1.86 µg/mL (≈ 2.53 µM).
On to `CCc1nccc(/C=C/C(=O)N2CCN(c3nc(OC[C@@]45CCCN4C[C@H](F)C5)nc4c(F)c(-c5cccc6ccc(F)c(Cl)c56)ncc34)C[C@@H]2CC#N)n1` [Example 88, 2-((S)-4-(7-(8-chloro-7-fluoronaphthalen-1-yl)-8-fluoro-2-(((2R,7aS)-2-fluorotetrahydro-1H-pyrrolizin-7a(5H)-yl)methoxy)pyrido[4,3-d]pyrimidin-4-yl)-1-((E)-3-(2-ethylpyrimidin-4-yl)acryloyl)piperazin-2-yl)acetonitrile], for which the IC50 in data set [1] and in data set [2] was < 10 nM in each case. Further, in data set [3], the logD was determined as 4.55. In addition, the solubility kinetic at 2 h in data set [4] is 45.9 µg/mL (≈ 59.7 µM).

The values are drawn from US20250129103A1, “METHODS FOR TREATMENT OF CANCER” (Frontier Medicines Corporation, priority 2022, published 2025).
